In paper PMC6386767, “Characterization of recombinant fructose-1,6-bisphosphatase gene mutations: evidence of inhibition/activation of FBPase protein by gene mutation” (Bioscience Reports, 2019):
Numbering of substitutions follows the chain as printed.

How the values were obtained:
pig kidney FBPase K112A = molecular target: T1, pig kidney FBPase K112A (Sus scrofa, UniProt P00636, K113A); test: Malachite Green kinetic assay, K112A mutant; assay type: biochemical; conditions: enzyme K112A vs WT
T1 construct: His6 (C); made in house; host or cells: Escherichia coli BL21 (DE3)
T1 sequence (P00636 1-338 K113A): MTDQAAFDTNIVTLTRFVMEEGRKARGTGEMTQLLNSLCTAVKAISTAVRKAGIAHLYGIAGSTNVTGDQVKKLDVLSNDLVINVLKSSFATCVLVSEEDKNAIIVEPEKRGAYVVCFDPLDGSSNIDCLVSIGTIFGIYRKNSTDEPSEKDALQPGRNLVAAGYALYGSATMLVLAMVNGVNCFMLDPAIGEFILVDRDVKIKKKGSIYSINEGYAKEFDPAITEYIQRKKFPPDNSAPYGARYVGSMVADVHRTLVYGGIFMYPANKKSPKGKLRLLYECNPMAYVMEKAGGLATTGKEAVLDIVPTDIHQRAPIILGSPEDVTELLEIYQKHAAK
Protocol: (§1) For the kinetic assay, a standard curve was obtained from an ammonium molybdate Malachite Green inorganic phosphate assay (OD660 nm). The purified FBPase protein was dialyzed ×3 in 50 mM Tris buffer at pH 7.5 at 4°C. For enzyme concentration, absorbency values were recorded for all five mutant proteins using spectrophotometer readings at OD280 nm. To quantitate enzyme concentration, the enzymes were calculated based on the quantity of micrograms per microliter (µg/µl) present. Final concentration of WT and mutant enzymes was between 2.5 and 5.0 µg/µl. Using a colorimetric assay as described below, specific activity (SA) was determined. At last, all kinetic and binding assays described below were performed in 50 mM Tris pH 7.5.
(§2) Kinetic assays were performed for WT and mutant enzymes to identify functional differences between the WT enzyme and the mutants. […] Readings recorded at OD660 nm for each enzyme were applied to the standard curve equation. Micromoles of inorganic phosphate were calculated to determine the SA of mutant enzymes.
(§3) For each clone, the kinetic assay was performed in duplicates of triplicates. Malachite Geen was used to detect inorganic phosphate. Two separate clones were processed independently of the same mutant. All kinetic data were fit to symmetric sigmoidal curve using Origin software based on methods previously described [[27–29]]. More specifically, for kinetic parameters established via curve fitting (shown in Tables 1–3; and in Figure 5A,B), the equation y = d + (a − d)/1 + (x/c)^b was used where ‘x’ is represented by apparent Michelis constant (Km) when y = Vmax. […] P-values were significant at <0.001 and represent a comparison with the WT enzyme.

pig kidney FBPase Y113A = molecular target: T2, pig kidney FBPase Y113A (Sus scrofa, UniProt P00636, Y114A); test: Malachite Green kinetic assay, Y113A mutant; assay type: biochemical; conditions: enzyme Y113A vs WT
T2 construct: His6 (C); made in house; host or cells: Escherichia coli BL21 (DE3)
T2 sequence (P00636 1-338 Y114A): T1 sequence (P00636 1-338 K113A) with A113K, Y114A
Protocol: as §1, §2, §3

- greater binding to the FBP substrate compared with WT (pig kidney FBPase K112A): 2 ×
- greater binding to the FBP substrate compared with WT (pig kidney FBPase Y113A): 2 ×
SMILES: O=C(COP(=O)(O)O)[C@@H](O)[C@H](O)[C@H](O)COP(=O)(O)O [FBP, fructose-1,6-bisphosphate]
